Data: US6458951B2, “Pyrazolopyrimidinone cGMP PDE5 inhibitors for the treatment of sexual dysfunction” (Pfizer Inc, priority 1998, dated 2002)

target: cGMP PDE5 (UniProt O76074); assay: Phosphodiesterase (PDE) inhibitory activity, in vitro, cGMP PDE5; assay type: biochemical, human or rabbit; details: in vitro activity as inhibitors of cGMP PDE5
Experimental: In vitro PDE inhibitory activities against cyclic guanosine 3′,5′-monophosphate (cGMP) and cyclic adenosine 3′,5′-monophosphate (cAMP) phosphodiesterases were determined by measurement of their IC50 values (the concentration of compound required for 50% inhibition of enzyme activity).
The required PDE enzymes were isolated from a variety of sources, including human corpus cavernosum, human and rabbit platelets, human cardiac ventricle, human skeletal muscle and bovine retina, essentially by the method of W. J. Thompson and M. M. Appleman (Biochem., 1971, 10, 311). In particular, the cGMP-specific PDE (PDE5) and the cGMP-inhibited cAMP PDE (PDE3) were obtained from human corpus cavernosum tissue, human platelets or rabbit platelets; the cGMP-stimulated PDE (PDE2) was obtained from human corpus cavernosum; the calcium/calmodulin (Ca/CAM)-dependent PDE (PDE1) from human cardiac ventricle; the cAMP-specific PDE (PDE4) from human skeletal muscle; and the photoreceptor PDE (PDE6) from bovine retina.
Assays were performed using a modification of the “batch” method of W. J. Thompson et al. (Biochem., 1979, 18, 5228).

| IC50 | SMILES |
| --- | --- |
| 5.7 nM | CCc1c2nc(-c3cc(S(=O)(=O)N4CCN(CC)CC4)cnc3OCc3ccccn3)[nH]c(=O)c2nn1C [Example 99, 3-Ethyl-5-[5-(4-ethylpiperazin-1-ylsulphonyl)-2-(pyridin-2-yl)methoxypyridin-3-yl]-2-methyl-2,6-dihydro-7H-pyrazolo[4,3-d]pyrimidin-7-one] |
| 10.1 nM | CCCc1c2nc(-c3cc(S(=O)(=O)N4CCN(CC)CC4)cnc3OCCOCC)[nH]c(=O)c2nn1Cc1ccccn1 [Example 10, 5-[2-(2-Ethoxyethoxy)-5-(4-ethylpiperazin-1-ylsulphonyl)pyridin-3-yl]-3-n-propyl-2-(pyridin-2-yl)methyl-2,6-dihydro-7H-pyrazolo[4,3-d]pyrimidin-7-one] |
| 7.3 nM | CCCc1nn(C)c2c(=O)[nH]c(-c3cc(S(=O)(=O)N4CCN(CC)CC4)cnc3OCc3ccccn3)nc12 [Example 127, 5-{5-(4-Ethylpiperazin-1-ylsulphonyl)-2-[(pyridin-2-yl)methoxy]pyridin-3-yl}-1-methyl-3-n-propyl-1,6-dihydro-7H-pyrazolo[4,3-d]pyrimidin-7-one] |
| 8.9 nM | CCc1c2nc(-c3cc(S(=O)(=O)N4CCN(CC)CC4)cnc3O[C@@H]3CCOC3)[nH]c(=O)c2nn1Cc1ccccn1 [Example 18, 3-Ethyl-5-[5-(4-ethylpiperazin-1-ylsulphonyl)-2-(tetrahydrofuran-3(R)-yloxy)pyridin-3-yl]-2-(pyridin-2-yl)methyl-2,6-dihydro-7H-pyrazolo[4,3-d]pyrimidin-7-one] |
| 10 nM | CCc1c2nc(-c3cc(S(=O)(=O)N4CCN(CC)CC4)cnc3OCCCOC)[nH]c(=O)c2nn1Cc1ccccn1 [Example 11, 3-Ethyl-5-[5-(4-ethylpiperazin-1-ylsulphonyl)-2-(3-methoxyprop-1-oxy)-pyridin-3-yl]-2-(pyridin-2-yl)methyl-2,6-dihydro-7H-pyrazolo[4,3-d]pyrimidin-7-one] |

The remaining lines, values behind:

| SMILES | IC50 |
| --- | --- |
| CCCc1nn(Cc2ncccn2)c2c(=O)[nH]c(-c3cc(S(=O)(=O)N4CCN(CC)CC4)cnc3OCCOC)nc12 [Example 48, 5-[5-(4-Ethylpiperazin-1-ylsulphonyl)-2-(2-methoxyethoxy)pyridin-3-yl]-3-n-propyl-1-(pyrimidin-2-yl)methyl-1,6-dihydro-7H-pyrazolo[4,3-d]pyrimidin-7-one] | 6.9 nM |
| CCc1c2nc(-c3cc(S(=O)(=O)N4CCN(CC)CC4)cnc3O[C@H](C)[C@@H](C)OC)[nH]c(=O)c2nn1C [Example 98, 3-Ethyl-5-[5-(4-ethylpiperazin-1-ylsulphonyl)-2-(2-(R)-methoxy-1-(R)-methylpropoxy)pyridin-3-yl]-2-methyl-2,6-dihydro-7H-pyrazolo[4,3-d]pyrimidin-7-one] | 7 nM |
| CCCc1c2nc(-c3cc(S(=O)(=O)N4CCN(CC)CC4)cnc3OCC)[nH]c(=O)c2nn1Cc1ncccn1 [Example 43b, 5-[2-Ethoxy-5-(4-ethylpiperazin-1-ylsulphonyl)pyridin-3-yl]-3-n-propyl-2-(pyrimidin-2-yl)methyl-2,6-dihydro-7H-pyrazolo[4,3-d]pyrimidin-7-one] | 3.6 nM |
| CCc1nn(Cc2nccn2C)c2c(=O)[nH]c(-c3cc(S(=O)(=O)N4CCN(CC)CC4)cnc3OCCOC)nc12 [Example 46, 3-Ethyl-5-[5-(4-ethylpiperazin-1-ylsulphonyl)-2-(2-methoxyethoxy)pyridin-3-yl]-1-(1-methylimidazol-2-yl)methyl-1,6-dihydro-7H-pyrazolo[4,3-d]pyrimidin-7-one] | 8.1 nM |
| CCc1c2nc(-c3cc(S(=O)(=O)N4CCN(CC)CC4)cnc3N3CCCC3)[nH]c(=O)c2nn1Cc1ccccn1 [Example 153] | 7.2 nM |

system: not given; assay: not given; details: not given

| melting point | SMILES |
| --- | --- |
| 139 to 140 °C | CCc1c2nc(-c3cc(S(=O)(=O)N4CCN(CC)CC4)cnc3OCCOC)[nH]c(=O)c2nn1Cc1ccccn1 (hydrate or solvate) [Example 4, 3-Ethyl-5-[5-(4-ethylpiperazin-1-ylsulphonyl)-2-(2-methoxyethoxy)pyridin-3-yl]-2-(Pyridin-2-yl)methyl-2,6-dihydro-7H-pyrazolo[4,3-d]pyrimidin-7-one] |
